From the supplement of paper PMC7017272
± gives the standard deviation of the averaged measurements.

What was measured:
Conditions in all cases: treatment time: 3 days
UT-SCC-24A [1] = test: drug sensitivity score (DSS); higher = more sensitive
Experimental: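 HNSCC cell lines (500 cells/well, 384-well) were cultured on plastic, on top of (2D) or embedded (3D) in Matrigel or human leiomyoma matrix Myogel (500 ug/mL; Myogel 3D mixed with rat collagen I). Cells were treated for 3 days with 5 ten-fold concentrations of each drug, and viability was read by CellTiter-Glo. Suffixes _1/_2/_3 on drug names are replicates.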

UT-SCC-106A [2] = test: maximal % inhibition of viability relative to DMSO; higher = stronger effect
Experimental: (§1)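 HNSCC cell lines (500 cells/well, 384-well) were cultured on plastic, on top of (2D) or embedded (3D) in Matrigel or human leiomyoma matrix Myogel (500 ug/mL; Myogel 3D mixed with rat collagen I). Cells were treated for 3 days with 5 ten-fold concentrations of each drug, and viability was read by CellTiter-Glo. Viability was normalised to DMSO and benzethonium chloride controls and fitted with the FIMM DSRT pipeline to give IC50 (nM), maximal % inhibition and DSS. Suffixes _1/_2/_3 are replicates. Only inhibition-mode (IC50) fits are kept.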

UT-SCC-14 [3] = test: as above
Experimental: as §1

UT-SCC-24B = test: as above
Experimental: as §1

UT-SCC-28 = test: as above
Experimental: as §1

UT-SCC-40 = test: as above
Experimental: as §1

UT-SCC-42A [4] = test: as above
Experimental: as §1

UT-SCC-42B [5] = test: as above
Experimental: as §1

UT-SCC-44 = test: as above
Experimental: as §1

UT-SCC-73 = test: as above
Experimental: as §1

UT-SCC-81 = test: as above
Experimental: as §1

UT-SCC-8 = test: as above
Experimental: as §1

UT-SCC-106A [6] = test: drug sensitivity score (DSS); higher = more sensitive; extreme values may be limits of the assay
Procedure, shortened: (§2)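 HPV-negative HNSCC cell lines were plated at 500 cells/well in 384-well plates, either on plastic, on wells coated with Matrigel or Myogel (500 µg/mL), or embedded in Matrigel or Myogel plus rat collagen I. Each compound was tested at five 10-fold concentrations over 3 days. Viability was measured by CellTiter-Glo 2.0 luminescence, and IC50, maximal inhibition and drug sensitivity score came from percent-inhibition dose–response curves fitted in the FIMM pipeline after normalisation to vehicle (0.1% DMSO) and cell-killing control wells.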

UT-SCC-14 [7] = test: as above
Procedure, shortened: as §2

UT-SCC-42A [8] = test: as above
Procedure, shortened: as §2

UT-SCC-42B [9] = test: as above
Procedure, shortened: as §2

UT-SCC-24A [10] = test: relative IC50 (midpoint of the fitted curve; maximal inhibition may be below 50%); higher = less potent
Experimental: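 HNSCC cell lines (500 cells/well, 384-well) were cultured on plastic, on top of (2D) or embedded (3D) in Matrigel or human leiomyoma matrix Myogel (500 ug/mL; Myogel 3D mixed with rat collagen I). Cells were treated for 3 days with 5 ten-fold concentrations of each drug, and viability was read by CellTiter-Glo. Viability was normalised to DMSO (0% inhibition) and 100 uM benzethonium chloride (100% inhibition) controls and fitted with the FIMM DSRT pipeline to give IC50 (nM), maximal % inhibition and the drug sensitivity score (DSS). Suffixes _1/_2/_3 on drug names are replicates.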

[11] = culture condition: embedded in Matrigel
[12] = culture condition: embedded in Myogel + collagen I
[13] = culture condition: on top of Matrigel
[14] = culture condition: on top of Myogel
[15] = culture condition: plastic 2D (no matrix)

- relative IC50 (UT-SCC-24A [10]; [13]): 5.41 nM
- relative IC50 (UT-SCC-24A [10]; [14]): 17.3 nM
- relative IC50 (UT-SCC-24A [10]; [15]): 6.48 nM
Structure (SMILES): Cn1cnc2c(F)c(Nc3ccc(Br)cc3F)c(C(=O)NOCCO)cc21 [Binimetinib]
- drug sensitivity score (UT-SCC-24A [1]; [11]): 24.4 ± 3.8 DSS
- drug sensitivity score (UT-SCC-24A [1]; [12]): 9.83 ± 4.3 DSS
- drug sensitivity score (UT-SCC-24A [1]; [13]): 19.9 ± 0.72 DSS
- drug sensitivity score (UT-SCC-24A [1]; [14]): 6.9 ± 0.85 DSS
- drug sensitivity score (UT-SCC-24A [1]; [15]): 18.1 ± 0.64 DSS
- maximal % inhibition of viability (UT-SCC-106A [2]; [11]): 48.3 ± 3.9%
- maximal % inhibition of viability (UT-SCC-106A [2]; [12]): 16.4 ± 2.9%
- maximal % inhibition of viability (UT-SCC-106A [2]; [13]): 60.1 ± 2.9%
- maximal % inhibition of viability (UT-SCC-106A [2]; [14]): 20.6 ± 2.3%
- maximal % inhibition of viability (UT-SCC-106A [2]; [15]): 62.2 ± 1.8%
- maximal % inhibition of viability (UT-SCC-14 [3]; [11]): 29.8 ± 10%
- maximal % inhibition of viability (UT-SCC-14 [3]; [12]): 33.8 ± 15%
- maximal % inhibition of viability (UT-SCC-14 [3]; [13]): 33.3 ± 9.7%
- maximal % inhibition of viability (UT-SCC-14 [3]; [14]): 32.4 ± 24%
- maximal % inhibition of viability (UT-SCC-14 [3]; [15]): 25.9 ± 25%
- maximal % inhibition of viability (UT-SCC-24B; [11]): 60.3 ± 0.64%
- maximal % inhibition of viability (UT-SCC-24B; [12]): 49.6 ± 11%
- maximal % inhibition of viability (UT-SCC-24B; [13]): 50.7 ± 2.5%
- maximal % inhibition of viability (UT-SCC-24B; [14]): 28.6 ± 5.1%
- maximal % inhibition of viability (UT-SCC-24B; [15]): 69.4 ± 4.1%
- maximal % inhibition of viability (UT-SCC-28; [11]): 38.5 ± 2.6%
- maximal % inhibition of viability (UT-SCC-28; [12]): 12.5 ± 11%
- maximal % inhibition of viability (UT-SCC-28; [13]): 31.2 ± 2.9%
- maximal % inhibition of viability (UT-SCC-28; [15]): 21.9 ± 6.2%
- maximal % inhibition of viability (UT-SCC-40; [11]): 77.3 ± 2.2%
- maximal % inhibition of viability (UT-SCC-40; [12]): 58.1 ± 13%
- maximal % inhibition of viability (UT-SCC-40; [13]): 72.4 ± 2%
- maximal % inhibition of viability (UT-SCC-40; [14]): 44.7 ± 8.7%
- maximal % inhibition of viability (UT-SCC-40; [15]): 52.8 ± 6%
- maximal % inhibition of viability (UT-SCC-42A [4]; [11]): 48.9 ± 1.6%
- maximal % inhibition of viability (UT-SCC-42A [4]; [12]): 24.5 ± 4.6%
- maximal % inhibition of viability (UT-SCC-42A [4]; [13]): 52.2 ± 5.8%
- maximal % inhibition of viability (UT-SCC-42A [4]; [14]): 28.6 ± 5.7%
- maximal % inhibition of viability (UT-SCC-42A [4]; [15]): 46.3 ± 2.8%
- maximal % inhibition of viability (UT-SCC-42B [5]; [11]): 66.2 ± 7.5%
- maximal % inhibition of viability (UT-SCC-42B [5]; [13]): 48.5 ± 15%
- maximal % inhibition of viability (UT-SCC-42B [5]; [14]): 24.8 ± 7%
- maximal % inhibition of viability (UT-SCC-42B [5]; [15]): 31.3 ± 8.6%
- maximal % inhibition of viability (UT-SCC-44; [11]): 70.1 ± 4.2%
- maximal % inhibition of viability (UT-SCC-44; [12]): 31.5 ± 8.1%
- maximal % inhibition of viability (UT-SCC-44; [13]): 52.9 ± 11%
- maximal % inhibition of viability (UT-SCC-44; [14]): 34 ± 5.1%
- maximal % inhibition of viability (UT-SCC-44; [15]): 45 ± 6.7%
- maximal % inhibition of viability (UT-SCC-73; [11]): 80.5 ± 1.5%
- maximal % inhibition of viability (UT-SCC-73; [12]): 53.5 ± 17%
- maximal % inhibition of viability (UT-SCC-73; [13]): 76.8 ± 1.7%
- maximal % inhibition of viability (UT-SCC-73; [14]): 60.7 ± 0.93%
- maximal % inhibition of viability (UT-SCC-73; [15]): 66.9 ± 4.2%
- maximal % inhibition of viability (UT-SCC-81; [11]): 85.5 ± 1%
- maximal % inhibition of viability (UT-SCC-81; [12]): 18.7 ± 4.7%
- maximal % inhibition of viability (UT-SCC-81; [13]): 76.3 ± 3.8%
- maximal % inhibition of viability (UT-SCC-81; [14]): 23.5 ± 3.9%
- maximal % inhibition of viability (UT-SCC-81; [15]): 38.7 ± 2.1%
- maximal % inhibition of viability (UT-SCC-8; [11]): 40.9 ± 26%
- maximal % inhibition of viability (UT-SCC-8; [12]): 19.8 ± 23%
- maximal % inhibition of viability (UT-SCC-8; [13]): 28.9 ± 14%
- maximal % inhibition of viability (UT-SCC-8; [14]): 29 ± 15%
- maximal % inhibition of viability (UT-SCC-8; [15]): 31 ± 25%
- drug sensitivity score (UT-SCC-106A [6]; [11]): 11.8 ± 0.81 DSS
- drug sensitivity score (UT-SCC-106A [6]; [12]): 0.567 ± 0.9 DSS
- drug sensitivity score (UT-SCC-106A [6]; [13]): 12.8 ± 2.5 DSS
- drug sensitivity score (UT-SCC-106A [6]; [14]): 1.67 ± 0.47 DSS
- drug sensitivity score (UT-SCC-106A [6]; [15]): 11.7 ± 0.51 DSS
- drug sensitivity score (UT-SCC-14 [7]; [11]): 6 ± 4.4 DSS
- drug sensitivity score (UT-SCC-14 [7]; [12]): 4.73 ± 3.5 DSS
- drug sensitivity score (UT-SCC-14 [7]; [13]): 5.1 ± 3.6 DSS
- drug sensitivity score (UT-SCC-14 [7]; [14]): 4.27 ± 4.4 DSS
- drug sensitivity score (UT-SCC-14 [7]; [15]): 2.27 ± 2 DSS
- drug sensitivity score (UT-SCC-42A [8]; [11]): 11.2 ± 1.7 DSS
- drug sensitivity score (UT-SCC-42A [8]; [12]): 5.2 ± 2.5 DSS
- drug sensitivity score (UT-SCC-42A [8]; [13]): 12.8 ± 2.1 DSS
- drug sensitivity score (UT-SCC-42A [8]; [14]): 5.1 ± 2.7 DSS
- drug sensitivity score (UT-SCC-42A [8]; [15]): 7.97 ± 0.65 DSS
- drug sensitivity score (UT-SCC-42B [9]; [11]): 16 ± 0.97 DSS
- drug sensitivity score (UT-SCC-42B [9]; [13]): 7.13 ± 3.2 DSS
- drug sensitivity score (UT-SCC-42B [9]; [14]): 1.77 ± 0.51 DSS
- drug sensitivity score (UT-SCC-42B [9]; [15]): 3.47 ± 0.32 DSS
